Source: US20230257359A1, “4-ARYLQUINAZOLINE DERIVATIVES AS METHIONINE ADENOSYLTRANSFERASE 2A INHIBITORS” (IDEAYA BIOSCIENCES, INC., priority 2020, published 2023)

target: T1, hMAT2A (Homo sapiens, UniProt P31153); test: Malachite Green Assay (MAT2A enzyme inhibition); assay type: biochemical; set-up: amino acids 1-395; purchased Cepter; settings: hMAT2A 50 nM, substrates 500 uM each, 1 hour, class symbols
Method: (§1) The ability of the compound of present disclosure to inhibit MAT2A enzyme was determined using the Malachite Green or Phosphate Sensor Fluorescence Assay described below.
Biologic Example A. Malachite Green Assay
Enzyme: MAT2A • hMAT2A: 50 nM, Cepter, 10 mg/mL (234 μM), amino acids 1-395 • Substrates: 500 uM each • Reaction time: 1 hour
L-methionine Substrate: Alfa Aesar catalog #J61904
ATP Substrate: Alfa Aesar cat #J60336
Malachite Green Detection Reagent: Millipore Sigma catalog #MAK307-1KT
Assay buffer: 50 mM Tris, pH 7.5/50 mM KCl/10 mM MgCl2/0.01% Brij-35/1 mM DTT/0.1% BGG
0% inhibition control: DMSO
100% inhibition control: No enzyme
5 μL of 3× final concentration test compounds in DMSO or DMSO were transferred to the appropriate wells of a microtiter plate and the plate was centrifuged at 1000 rpm for 1 minute. 5 μL of 3× final concentration MAT2A enzyme in assay buffer or assay buffer alone was transferred to the appropriate wells and the plate was centrifuged at 1000 rpm for 1 minute. The plate was incubated at room temperature for 15 minutes and then 5 μL of 3× the L-methionine and ATP substrate mixture in assay buffer was transferred to all the test wells. The plate was centrifuged at 1000 rpm for 1 minute and then incubated at room temperature for 1 hour. 5 μL of malachite green detection reagent was added to all the test wells and the plate was centrifuged at 1000 rpm for 1 minute and then incubated at room temperature for 30 minutes. The plate was read for absorbance at 620 nm on a plate reader (e.g., Infinite M1000). The high control (DMSO) with high absorbance represents no inhibition of enzymatic reaction while the low control (no enzyme) with low absorbance represents full inhibition of enzymatic reaction.

T1 sequence (P31153 whole entry, the tested form may be a part): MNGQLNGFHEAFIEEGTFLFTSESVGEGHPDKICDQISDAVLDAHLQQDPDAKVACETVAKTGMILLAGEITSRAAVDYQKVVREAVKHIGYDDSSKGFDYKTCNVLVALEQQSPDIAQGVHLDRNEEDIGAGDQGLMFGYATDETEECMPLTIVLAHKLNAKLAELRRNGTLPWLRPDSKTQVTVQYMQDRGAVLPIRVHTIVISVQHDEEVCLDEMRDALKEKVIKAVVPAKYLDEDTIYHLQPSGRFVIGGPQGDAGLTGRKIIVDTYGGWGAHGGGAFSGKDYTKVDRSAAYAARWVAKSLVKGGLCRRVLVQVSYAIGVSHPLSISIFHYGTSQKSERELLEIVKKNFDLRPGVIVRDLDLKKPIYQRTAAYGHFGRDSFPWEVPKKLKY

| IC50 [µM] | SMILES |
| --- | --- |
| 0.01 to 0.2 | O=c1nc(-c2ccccc2)c2cc(Br)ccc2[nH]1 [1.013, 6-bromo-4-phenylquinazolin-2-ol] |
| 0.01 to 0.2 | O=c1nc(-c2ccccc2)c2cc(Cl)ccc2[nH]1 [1.001, 6-chloro-4-phenylquinazolin-2-ol] |

same assay, conditions: hMAT2A 50 nM, substrates 500 uM each, 1 hour, numeric bound

| IC50 [µM] | SMILES |
| --- | --- |
| > 10 | CNC(=O)c1nc(-c2ccccc2)c2cc(Cl)ccc2n1 [1.008, 6-chloro-N-methyl-4-phenylquinazoline-2-carboxamide] |
| > 10 | CC(C)(C)OC(=O)N1CC(Oc2nc(-c3ccccc3)c3cc(Cl)ccc3n2)C1 [1.004, tert-butyl 3-((6-chloro-4-phenylquinazolin-2-yl)oxy)azetidine-1-carboxylate] |
| > 10 | NC(=O)Cc1nc(-c2ccccc2)c2cc(Cl)ccc2n1 [1.011, 2-(6-chloro-4-phenylquinazolin-2-yl)acetamide] |
| > 10 | OCc1nc(-c2ccccc2)c2cc(Cl)ccc2n1 [1.009] |
| > 10 | COC(=O)Cc1nc(-c2ccccc2)c2cc(Cl)ccc2n1 [1.012, methyl 2-(6-chloro-4-phenylquinazolin-2-yl)acetate] |
| > 10 | N#Cc1nc(-c2ccccc2)c2cc(Cl)ccc2n1 [1.005, 6-chloro-4-phenylquinazoline-2-carbonitrile] |
| > 10 | Clc1ccc2nc(Cl)nc(-c3ccccc3)c2c1 [1.002, 2,6-dichloro-4-phenylquinazoline] |
| > 10 | N#CCc1nc(-c2ccccc2)c2cc(Cl)ccc2n1 [1.010, 2-(6-chloro-4-phenylquinazolin-2-yl)acetonitrile] |

target: T1, hMAT2A; test: Phosphate Sensor Fluorescence Assay (MAT2A enzyme inhibition); assay type: biochemical; set-up: Human MAT2A: Cepter, amino acids 1-395; purchased Cepter clone ID 329, lot 00023-123; clone ID 334, lot 00023-148; settings: L-methionine and ATP 500 uM, 1 hour, class symbols
Method: as §1
Biologic Example B. Phosphate Sensor Fluorescence Assay
MAT2A enzyme is incubated with a test compound in DMSO or DMSO and its substrates (L-methionine and ATP) in a microtiter plate. The enzymatic reaction is stopped by the addition of Working Phosphate Sensor Mixture. The plate is analyzed for fluorescence at 450 nm. The high control (DMSO with enzyme and its substrates) gives high fluorescence which represents no inhibition of enzymatic activity while the low control (DMSO with MAT2A substrates and no enzyme) gives low fluorescence which represents full inhibition of enzymatic activity.
Human MAT2A: Cepter, amino acids 1-395
Assay Buffer: 50 mM Tris, pH 7.5/50 mM KCl/10 mM MgCl2/0.01% Brij-35/1 mM DTT/0.1% BGG/40 nM PNP/6 uM 7-MEG
MAT2A: 10 nM for Cepter clone ID 329, lot 00023-123 before the addition of Working Phosphate Sensor Mixture • 5 nM for Cepter clone ID 334, lot 00023-148 before the addition of Working Phosphate Sensor Mixture
L-methionine: 500 uM before the addition of Working Phosphate Sensor Mixture
ATP: 500 uM before the addition of Working Phosphate Sensor Mixture
For the assay, a mixture of 1 mM L-methionine/1 mM ATP (2× final pre-stopped concentration) in assay buffer; MAT2A (2× final pre-stopped concentration) in Assay Buffer and Working Phosphate Sensor Mixture (1.5 uM Phosphate Sensor/30 mM EDTA in Assay Buffer, which is 3× final concentrations) were prepared. Test compounds or DMSO were added to the appropriate well suing D300e digital dispenser. 5 μl/well of Assay Buffer was added to the wells corresponding to the negative control and 5 μl/well of MAT2A was added to all the wells except for those corresponding to the negative control. After incubating the plate at room temperature for 15 minutes, 5 μl/well of the 1 mM L-methionine/1 mM ATP mixture was added to all wells. The plate was centrifuged at 1000 rpm for 1 minute and then incubated at room temperature for 1 hour. 5 μl of the Working Phosphate Sensor Mixture was added to all wells and the plate was centrifuged at 1000 rpm for 1 minute. The plate was read for fluorescence at 450 nm after exciting at 430 nm.
Percent inhibition was calculated in Chemical and Biological Information System (CBIS), (ChemInnovation Software Inc.). Curves were fitted by CBIS as % inhibition vs. log [compound concentration] using a 4-parameter inhibition model.
Fit=(A+((B−A)/(1+((C/x)^D))))

| SMILES | IC50 [µM] |
| --- | --- |
| O=c1nc(-c2ccccc2)c2cc(Br)ccc2[nH]1 [1.013, 6-bromo-4-phenylquinazolin-2-ol] | 0.01 to 0.2 |
| Oc1nc(-c2cccnc2Cl)c2cc(Br)ccc2n1 [1.003, 6-bromo-4-(2-chloropyridin-3-yl)quinazolin-2-ol] | 0.2 to 0.5 |
| O=c1nc(-c2ccccc2)c2cc(Cl)ccc2[nH]1 [1.001, 6-chloro-4-phenylquinazolin-2-ol] | 0.01 to 0.2 |
| Cc1ccc2[nH]c(=O)nc(-c3ccccc3)c2c1 [1.014, 6-methyl-4-phenylquinazolin-2-ol] | 0.5 to 1 |

Continued, values first:

| IC50 [µM] | SMILES |
| --- | --- |
| 0.01 to 0.2 | Cc1ncccc1-c1nc(O)nc2ccc(Br)cc12 [1.020, 6-bromo-4-(2-methylpyridin-3-yl)quinazolin-2-ol] |
| 0.01 to 0.2 | Oc1nc(-c2ccccc2)c2cc(C(F)(F)F)ccc2n1 [1.015, 4-phenyl-6-(trifluoromethyl)quinazolin-2-ol] |
| 0.01 to 0.2 | Cc1ccccc1-c1nc(O)nc2ccc(C3CC3)cc12 [1.016, 6-cyclopropyl-4-(o-tolyl)quinazolin-2-ol] |
| 1 to 10 | Cc1ccc2nc(O)nc(-c3ccccc3)c2n1 [1.018, 6-methyl-4-phenylpyrido[3,2-d]pyrimidin-2-ol] |
| 1 to 10 | Oc1nc(-c2cccnc2C(F)(F)F)c2cc(Br)ccc2n1 [1.021, 6-bromo-4-(2-(trifluoromethyl)pyridin-3-yl)quinazolin-2-ol] |
| 0.01 to 0.2 | COc1cc(C2CC2)cc2c(-c3ccccc3)nc(O)nc12 [1.019, 6-cyclopropyl-8-methoxy-4-phenylquinazolin-2-ol] |
| 1 to 10 | Oc1nc(-c2cccnc2)c2cc(Br)ccc2n1 [1.017, 6-bromo-4-(pyridin-3-yl)quinazolin-2-ol] |

same assay, conditions: L-methionine and ATP 500 uM, 1 hour, numeric bound

| IC50 [µM] | SMILES |
| --- | --- |
| > 10 | CNC(=O)c1nc(-c2ccccc2)c2cc(Cl)ccc2n1 [1.008, 6-chloro-N-methyl-4-phenylquinazoline-2-carboxamide] |
| > 10 | CC(C)(C)OC(=O)N1CC(Oc2nc(-c3ccccc3)c3cc(Cl)ccc3n2)C1 [1.004, tert-butyl 3-((6-chloro-4-phenylquinazolin-2-yl)oxy)azetidine-1-carboxylate] |
| > 10 | NC(=O)Cc1nc(-c2ccccc2)c2cc(Cl)ccc2n1 [1.011, 2-(6-chloro-4-phenylquinazolin-2-yl)acetamide] |
| > 10 | OCc1nc(-c2ccccc2)c2cc(Cl)ccc2n1 [1.009] |
| > 10 | COC(=O)Cc1nc(-c2ccccc2)c2cc(Cl)ccc2n1 [1.012, methyl 2-(6-chloro-4-phenylquinazolin-2-yl)acetate] |
| > 10 | O=C(O)c1nc(-c2ccccc2)c2cc(Cl)ccc2n1 [1.006, 6-chloro-4-phenylquinazoline-2-carboxylic acid] |
| > 10 | N#Cc1nc(-c2ccccc2)c2cc(Cl)ccc2n1 [1.005, 6-chloro-4-phenylquinazoline-2-carbonitrile] |
| > 10 | Clc1ccc2nc(Cl)nc(-c3ccccc3)c2c1 [1.002, 2,6-dichloro-4-phenylquinazoline] |
| > 10 | N#CCc1nc(-c2ccccc2)c2cc(Cl)ccc2n1 [1.010, 2-(6-chloro-4-phenylquinazolin-2-yl)acetonitrile] |
